Assays:
HPV18-E1 helicase = HPV18-E1 helicase (human papillomavirus 18, UniProt P06789); test: HPV18-E1 helicase assay; assay type: biochemical, human papilloma virus 18; details: requires higher CA1 concentrations than CMG
Method: The HPV16 or HPV18 E1 helicase domain (16E1HD or 18E1HD) was expressed and purified from Sf9 cells by infecting the cells with 2Flag-GST-E1 baculovirus. The cleared cell lysates were prepared as for large T antigen and incubated with Glutathione beads at 4° C. overnight. The bound E1 proteins were eluted from beads with 20 mM reduced glutathione in Q buffer, applied to a Q Sepharose Fast Flow column, and eluted with 0.75 M potassium acetate in Q buffer. Purified E1 proteins were obtained by further incubation with Flag-M2 beads and elution with Flag peptides.
Helicase fork-unwinding assays were performed at 37° C. for 1 hr in 20 μL reaction volumes using 2-4 μl of hCMG (~15-30 fmol), in a buffer consisting of 25 mM Hepes-NaOH (pH 7.5), 5 mM NaCl, 0.5 mM ATP, 10 mM magnesium acetate, 1 mM DTT, 0.1 mg/ml bovine serum albumin (BSA), and ~10 fmol of radiolabeled DNA forks (20). Reactions were terminated with 4 μl of 6× stop solution [50 mM EDTA (pH 8.0), 40% (vol/vol) glycerol, 2% (wt/vol) SDS, and 0.3% bromophenol blue], loaded onto 10% (wt/vol) polyacrylamide gels, resolved at 150 volts in 1×-TBE buffer (89 mM Tris base, 89 mM boric acid, and 2 mM EDTA), dried on filter paper, and analyzed by autoradiography and quantified by PhosphorImager assessment. […]

[1] = system: Psn1, H460 and 143B tumor lines; test: CellTiter-Glo viability, tumor lines; assay type: cell-based, human
Method: Human keratinocytes (HaCaT; RRID:CVCL_0038), 143B cells (osteosarcoma; RRID:CVCL_2270), and HEK-293T (RRID:CVCL_0063) cells were maintained in Dulbecco's Modified Eagle's Medium (DMEM) supplemented with 10% fetal bovine serum (FBS; Peak Serum, PS-FB-2). Human Psn1 (pancreatic ductal adenocarcinoma; RRID:CVCL_1644) and H460 (non-small cell lung carcinoma; RRID:CVCL_0459) cells were cultured in RPMI-1640 medium supplemented with 10% FBS. HaCaT cells were synchronized in Go using serum starvation for 48 hr and released into the cell cycle by addition of DMEM with 10% FBS (51). Novobiocin (cat #46531) and Courmermycin-A1 (cat #C9270) were obtained from Sigma. Etoposide (cat #S1225) and AT7519 (cat #S1524) were obtained from SelleckChem. All stock solutions of inhibitors were stored at −20° C. as 10 mM suspensions in DMSO.
(§1) Cell viability determinations were performed using CellTiter-Glo Assays (Promega; cat #G7572). Cells were seeded in 96-well plates at a density of ~3×10^3 cells/well and treated with drugs for 72 hr, after which the cells were processed for viability using CellTiter-Glo reagent according to the instructions of the manufacturer. Each drug concentration test was performed using four replicates, and results averaged and plotted on graphs, +/−1 s.d.

[2] = system: hCMG complexes immunoprecipitated from HaCaT cells; test: Co-immunoprecipitation, HaCaT nuclear extract; assay type: biochemical, human; details: 15 μM, 30 min
Method: Nuclear extracts were prepared from synchronized HaCaT cells after releasing into S-phase (at 20 hrs post release) or HEK-293T cells expressing stable Flag-Mcm2 protein (human). Cells from one 10 cm dish were resuspended in […] of Buffer A (10 mM Hepes-KOH pH 7.5, 10 mM KCl, 1.5 mM MgCl2, 0.34 M sucrose, 10% glycerol, protease inhibitors, and 0.1% Triton-X-100) and incubated on ice for 5 min. The nuclear pellet was obtained by centrifugation at 4,000 rpm at 4° C. for 5 min and washed with the Buffer A without Triton X-100. The nuclear extract was obtained by resuspending the nuclear pellet in […] of Buffer A containing 420 mM potassium acetate and 0.01% Triton X-100, and incubating at 4° C. for 1 hr. The final concentration of potassium acetate in nuclear extracts was adjusted to 200 mM for the co-immunoprecipitation assays. For the co-immunoprecipitation assays, […] of indicated antibody [anti-Mcm2, anti-Psf1, or rabbit IgG (Sigma)], or 30 mL of mouse IgG or anti-Flag agarose beads (Sigma), was incubated with […] of nuclear extract at 4° C. for 4 hrs. Protein A/G agarose beads (30 mL, Santa Cruz, sc-2003) were added and incubated for 1 hr with antibodies. Agarose beads were washed once in Buffer A containing 200 mM potassium acetate and 0.01% Triton X-100 and incubated with 15 μM CA1 or DMSO (same concentration as in CA1 sample) for 30 min. Beads were washed in the same buffer and analyzed by immunoblotting with indicated antibodies.

[3] = system: CMG proteins in 143B cells; test: Immunoblot of chromatin-bound proteins, asynchronous 143B OS cells; assay type: cell-based, human; details: 24 hrs
Method: (§2) FIGS. 7A-7C depict that CMGi induce DNA damage and selectively reduce tumor cell viability. (FIG. 7A) Cell Titer Glo viability assays for CA1/CMGi sensitivity were performed on 143B (OS), Psn1 (PDAC), and H460 (NSCLC) tumor lines. Novobiocin was tested against 143B cells as a comparison. (FIG. 7B) Immunoblot of chromatin-bound proteins (as indicated) from asynchronous 143B OS cells treated with 10 μM novobiocin or increasing concentrations of CA1 for 24 hrs. (FIG. 7C) Immunoblot of total proteins from Psn1, H460, 143B, and HaCaT cells treated with 5 μM CA1/CMGi or DMSO/novobiocin controls, or HaCaT treated with 15 μM CA1/CMGi (right side). The Psn1 and H460 cells were treated for 24 hrs, and 143B and HaCaT cells were treated for 48 hrs. Probing of blots was done with anti-gamma-H2AX (DNA damage signal) or anti-cleaved-Parp (apoptotic indicator). Anti-GAPDH is a loading control.

[4] = system: Psn1, H460 and 143B tumor lines; test: DNA damage (gamma-H2AX) and apoptosis (cleaved Parp) immunoblot, tumor lines; assay type: cell-based, human; details: 5 μM
Method: as §2

HaCaT cells = test: DNA damage (gamma-H2AX) and apoptosis (cleaved Parp) immunoblot, HaCaT; assay type: cell-based, human; details: 15 μM, 48 hrs
Method: as §2

[5] = system: bacterial type-2 topoisomerase, gyrase; details: cited from earlier work
143B cells = test: CellTiter-Glo viability, 143B; assay type: cell-based, human; details: 72 hr
Method: as §2, §1

Sequence of HPV18-E1 helicase (P06789 305-657): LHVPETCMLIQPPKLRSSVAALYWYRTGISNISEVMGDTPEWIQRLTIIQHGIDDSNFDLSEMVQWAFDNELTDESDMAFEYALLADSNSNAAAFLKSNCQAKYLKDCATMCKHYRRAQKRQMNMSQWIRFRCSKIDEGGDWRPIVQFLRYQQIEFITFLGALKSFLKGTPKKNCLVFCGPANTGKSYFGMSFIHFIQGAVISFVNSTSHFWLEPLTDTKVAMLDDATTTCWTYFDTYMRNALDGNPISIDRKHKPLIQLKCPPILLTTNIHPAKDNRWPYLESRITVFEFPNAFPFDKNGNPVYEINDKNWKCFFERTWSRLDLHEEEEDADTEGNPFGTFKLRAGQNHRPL

SMILES: CO[C@@H]1[C@@H](OC(=O)c2ccc(C)[nH]2)[C@@H](O)[C@H](Oc2ccc3c(O)c(NC(=O)c4c[nH]c(C(=O)Nc5c(O)c6ccc(O[C@@H]7OC(C)(C)[C@H](OC)[C@@H](OC(=O)c8ccc(C)[nH]8)[C@H]7O)c(C)c6oc5=O)c4C)c(=O)oc3c2C)OC1(C)C [CA1]
- HPV18-E1 helicase sensitivity (HPV18-E1 helicase): sensitive to CA1, but require higher CA1 concentrations
- IC50 ([1]; Homo sapiens, 72 hr, all three tumor lines (Psn1, H460, 143B), read-out: tumor line viability IC50 estimates): 1000 to 4000 nM
- sensitivity of tumor lines relative to HaCaT ([1]; Psn1, H460, 143B vs HaCaT, 4320 min): 4-10 times
- Cdc45 association with MCMs ([2]; Mcm2 IP): causes Cdc45 to dissociate from MCMs
- MCM complexes ([2]; Mcm2 IP): does not disrupt MCM complexes
- Mcm2 and Mcm6 interactions with GINS ([2]; Psf1 IP): abolished
- Psf1-3 interactions ([2]; Psf1 IP): did not disrupt Psf1-3 interactions
- MCM levels ([3]; higher CA1 doses): MCM levels start to diminish
- RPA levels ([3]; low micromolar CA1): reducing RPA levels in a dose-dependent manner
- chromatin-bound levels of Cdc45, Psf1 and Psf2 ([3]; low micromolar CA1): reducing the chromatin-bound levels of Cdc45, Psf1, and Psf2
- gamma-H2AX and Parp cleavage, tumor lines vs HaCaT [4]: tumor cell-specific increase in DNA damage signals (gamma-H2AX surrogate) and Parp cleavage
- gamma-H2AX and Parp cleavage (HaCaT cells): HaCaT cells will eventually incur DNA damage and Parp cleavage
- gyrase inhibition [5]: known to inhibit the bacterial type-2 topoisomerase, gyrase

SMILES: CO[C@@H]1[C@@H](OC(N)=O)[C@@H](O)[C@H](Oc2ccc3c(O)c(NC(=O)c4ccc(O)c(CC=C(C)C)c4)c(=O)oc3c2C)OC1(C)C [novobiocin]
- effect on tumor cell viability (143B cells): little effect until higher concentrations are tested

— US20260306641A1, “HELICASE DEGRADERS” (priority 2023, published 2026)
